Data reported in patent US20070009571A1, “Novel haptotactic peptides” (Hadasit Medical Research Services & Development Ltd., priority 1998, published 2007).
“Also recorded” adds a separate entry of the source. No end group written: not given here.

Experiments:
[1] = test system: bovine aortic endothelial cells (EC, BAEC); test: Haptotaxis assay: attachment of ligand-coated SB to cultured cells; type: cell-based; conditions: for % Binding of peptide-coated SB to normal cultured cells: percentage of SB-ligand attached to cells by day 4
Method: (§1) Peptides or fibrinogen were covalently bound to CNBr activated sepharose beads (SB) (Pharmacia, Piscataway, N.J.) using techniques previously used to bind albumin, fibrinogen and thrombin. Briefly, CNBr-activated sepharose 4B (Pharmacia) was washed with 1N HCl, and suspended in the coupling buffer (pH 8.3), following the protocol supplied by the manufacturer. The peptides were dialyzed against the coupling buffer to remove Tris. Peptides (1 mg) were not highly water soluble. The peptides were dissolved in 1 mL 70% ethanol or dimethylformamide, and were then mixed into the coupling buffer containing 1 mL CNBr-activated sepharose. The suspension was gently agitated overnight, then centrifuged 500×g to pack the beads. This procedure covalently binds more than 95% of proteins or peptides including fibrinogen or peptides-CαE (SEQ ID NO:3), Cβ (SEQ ID NO:1) and preCγ (SEQ ID NO:2) to the beads determined by Abs280 readings of the solutions.
(§2) The migratory/adhesion response of cells to proteins (such as fibrinogen) or peptides covalently bound to SB was measured as follows. Cells were grown in 6 or 12 well plates to near confluence or in suspension until they covered about ½ to ⅔ of the plate surface. At that point, about […] of a suspension containing 50% v/v SB coated with the test protein or peptide were added to the plate and dispersed by gentle shaking for 1 min. The plate was then returned to the incubator and examined at different times by inverted phase microscopy.
(§3) The SB (naked or ligand bound) sedimented onto the nearly confluent cell layer and occasionally made physical contact with cell membranes on the plate (ascribed to Brownian motion or micro-convection currents). […] Typically, 300 beads (but not less then 200) were counted in each well and the ratio of SB bound to the cells relative to total number SB could be calculated (SB bound/SB total). Counting the percentage of SB attached to the cell surface at different time intervals provided a quantitative assay of the kinetics of the attachment of coated beads to cells. Negative control with uncoated SB or positive controls with SB-fibrinogen were employed with at least 3 wells measured for each. The statistical error was calculated from the square root of the total counts.
(§4) The peptides of the present invention were synthesized and tested in cell culture systems as described above. Essentially, peptides were covalently attached to sepharose beads to form SB-Cα (SEQ ID NO:4), SB-Cβ (SEQ ID NO:1), SB-PreCγ (SEQ ID NO:2), SB-Cγ (SEQ ID NO:5) and SB-CαE (SEQ ID NO:3), respectively, as was fibrinogen to form SB-Fib. The SB-peptide combination was then incubated with cultured cells. […] The haptotactic potency of the peptides is summarized in Table 3 with the percentage of SB-Fib/peptide attached to cells (by day 4) given in columns 2-5 of Table 3.

tested cell lines = test: Haptotaxis assay, statements over the tested cell lines; type: cell-based; conditions: ligands covalently bound to SB; for haptotactic response / cell binding to SB-ligand, in words: near confluent cell cultures
Method: as §1, §2, §3, §4

HF [2] = test: Cell proliferation, MTS assay; type: cell-based, human; conditions: 0.4 nM-4 μM, 96 well plates
Method: Cell proliferation was evaluated by measuring cell density as a function of time by two different colorimetric assays. The MTS colorimetric assay (CellTitre 96 Aqueous Assay by Promega) is based on dehydrogenase conversion of MTS (methyl tetrazolium salt) by viable cells to […] (Ge M. Tang, G., Ryan. T. J. and Malik. A. B., “Fibrinogen degradation product fragment D induces endothelial cell detachment by activation of cell-mediated fibrinolysis”, J. Clin. Inves., 90:2508-2516 (1992)); the methylene blue (MB) assay is based on the staining of monolayer cells after their fixation, and reading the absorbence of the absorbed dye.
The MTS assay for viable cells was performed as follows: 30 μL of freshly prepared MTS/PMS were added to each well; following 2 hrs incubation at 37° C., the plates were placed on a computer driven microplate reader (Anthos HT-II, Salzburg, Austria), programmed to shake the plate for 1 minute before reading the optical density (OD) of the dye at 490 nm. The measurements were repeated following 4 and 6 hours of incubation.
Peptides (Cα (SEQ ID NO:4), […], PreCγ (SEQ ID NO:2) and CαE (SEQ ID NO:3)), up to 1 μg/mL or 100 μg/mL fibrinogen or thrombin (final concentrations) were added to the culture medium and cell numbers were assayed by day 3 using the MTS assay. The change in cell number was compared with that observed versus saline control. Of the 5 peptides tested at dosages up to 10 μg/mL (approximately equimolar to 1 μg/mL fibrinogen), none of the peptides exerted significant effect on cell proliferation (FIG. 7).

EC cells (BAEC) = test: FACS analysis of binding of FITC-labeled peptides; type: cell-based, bovine; conditions: 10 μg/ml or 100 μg/ml, medium with 0.1% albumin
Method: (§5) EC and HF cell monolayers were washed and then incubated with trypsin-versene. Cells were then washed with growth medium and resuspended in medium with 0.1% albumin. FITC-labeled peptide-Cβ (SEQ ID NO:1) was incubated with 5×10^5 EC cells (10 μg/ml or 100 μg/ml) or with 2.5×10^5 HF cells (100 μg/ml) in medium with 0.1% albumin. FITC-labeled peptide-CαE (SEQ ID NO:3) and Cα (SEQ ID NO:4) (10 μg/ml) was incubated with 5×10^5 EC cells in medium with 0.1% albumin. Cells were then washed with PBS and 1% albumin. Cells were resuspended in PBS and 1% albumin and then filtered through a mesh for FACS analysis, in which the FITC tluorescence was measured for each cell.
(§6) The control is without FITC-labeled peptide (background fluorescence).
(§7) In competition experiments, cells were incubated with various concentrations of unlabeled Cβ (SEQ ID NO:1) for 15 mins, an aliquot of Cβ^FITC (4 mM) was added and the sample was subjected to FACS analysis. […] The Cβ^FITC (SEQ ID NO:1) uptake experiments best fitted a linear-quadratic curve-fit.

HF cells = test: FACS analysis of binding of FITC-labeled peptides; type: cell-based, human; conditions: 100 μg/ml, medium with 0.1% albumin
Method: as §5, §6, §7

cells such as HF or BAEC = test: FACS competition and uptake experiments with Cβ-FITC; type: cell-based; parameters: dose or concentration left out as unconfirmed; conditions: preincubation with unlabeled Cβ for 15 mins
Method: as §7

BAEC = test: Chemotaxis, micro-Boyden chamber assay; type: cell-based, bovine; conditions: up to 40 μg/ml
Method: (§8) Chemotaxis was evaluated using 48-well plastic Microtaxis micro-Boyden chambers. Polycarbonate filters with pore size of 8 μm were coated with fibronectin for 2 hours at 37° C. Conditioned medium from 3T3 cells served as a positive control. Test solution (26 μl) containing the tested peptides or protein or medium with no additions that served as control were placed in the lower chamber, covered with the filter. 50 μl cell suspension was introduced to the upper chamber of each well. The number of cells/well varied in the range of 5,000-10,000 in different experiments. The device loaded with cells was incubated at 37° C. for 4-5 hours. The filter was then removed and the non-migrating cells on its upper part were carefully wiped off with a damp cotton swab. The filter was fixed in methanol and stained with Accustain (modified Wright stain solution Sigma Diagnostics: St. Lois, Mo.). Cells that crossed or were retained within the filter were counted microscopically at low magnification so that the viewing field corresponded to the whole area of each well. Each experimental variant was performed in duplicated or triplicates and the data from, three successful experiments were normalized to the values of the positive control and averaged.
The chemotactic response of BAEC to a soluble gradient of […], the most haptotactic of the peptides studied was as follows. The results can be seen in FIG. 6. […] A similar, though more moderate, chemotaxis response to Cβ (SEQ ID NO:1) was obtained with HF.

HF [3] = test: Chemotaxis, micro-Boyden chamber assay; type: cell-based, human; conditions: compared with BAEC
Method: as §8
The chemotactic response of BAEC to a soluble gradient of Cα (SEQ ID NO:1), the most haptotactic of the peptides studied was as follows. […]

[4] = test system: normal human skin fibroblasts (HF); test: Haptotaxis assay: attachment of ligand-coated sepharose beads (SB) to cultured cells; type: cell-based; conditions: for % Binding of peptide-coated SB to normal cultured cells: percentage of SB-ligand attached to cells by day 4
Method: as §1, §2, §3, §4

[5] = test system: human ovarian carcinoma cells (OV-1063); test: Haptotaxis assay: attachment of ligand-coated SB to cultured cells; type: cell-based; conditions: percentage of SB-ligand attached to cells by day 4
Method: as §1, §2, §3, §4

[6] = test system: murine mammary adenocarcinoma cells (EMT-6); test: as above; type: cell-based; conditions: for % Binding of peptide-coated SB to normal cultured cells: percentage of SB-ligand attached to cells by day 4
Method: as §1, §2, §3, §4

[7] = test system: normal human keratinocytes; test: as above; type: cell-based; conditions: Keratinocyte; percentage of SB-ligand attached to cells by day 4
Method: as §1, §2, §3, §4

[8] = test system: normal murine fibroblasts (MF); test: as above; type: cell-based; conditions: for % Binding of peptide-coated SB to normal cultured cells: percentage of SB-ligand attached to cells by day 4
Method: as §1, §2, §3, §4

[9] = test system: porcine smooth muscle cells (SMC); test: as above; type: cell-based; conditions: for % Binding of peptide-coated SB to normal cultured cells: percentage of SB-ligand attached to cells by day 4
Method: as §1, §2, §3, §4

human fibroblasts = conditions: isolated constituent chains of fibrinogen; Gray et al. 1993; cited from earlier work

Molecule	cell binding / haptotactic response to SB-ligand, in words [1]	haptotactic response / cell binding to SB-ligand, in words (tested cell lines)	% Binding of peptide-coated SB to normal cultured cells [4] [%]	% Binding of peptide-coated SB to normal cultured cells [1] [%]	% Binding of peptide-coated SB to normal cultured cells [5] [%]	% Binding of peptide-coated SB to normal cultured cells [6] [%]	% Binding of peptide-coated SB to normal cultured cells [7] [%]	% Binding of peptide-coated SB to normal cultured cells [8] [%]	% Binding of peptide-coated SB to normal cultured cells [9] [%]	cell lines excepted from binding to SB-ligand (all other tested lines bound) (tested cell lines)	number of cell lines bound by SB-ligand out of 7 tested (tested cell lines)	further results
KGSWYSMRKMSMKIRPFFPQQ (Equivalent to the c-terminus of fibrinogen beta-chain) [Cβ, haptotactic peptide homologous to the carboxy terminus of the fibrinogen β chain, β 441-461]	greatest haptotactic response	highly haptotactic; also recorded: significant haptotactic responses										proliferative response of HF (MTS proliferation assay) (HF [2]): none of these peptides stimulated or inhibited proliferation; binding/uptake of FITC-labeled peptide by FACS, in words (EC cells (BAEC)): higher than that of CαE; also recorded: clearly bound to cells; binding/uptake of FITC-labeled peptide by FACS, in words (HF cells): higher than that of CαE; effect of unlabeled peptide on uptake of Cβ-FITC (competition) (cells such as HF or BAEC): increased the level of total Cβ; chemotactic response relative to negative control of 1% BSA serum-free medium (BAEC; BAEC): 3 times; chemotactic response of BAEC, in words (BAEC; soluble gradient, conditioned medium = 100% chemotaxis): highly significant chemotaxis; chemotaxis response of HF, in words (HF [3]): more moderate
SB-CαE: peptide-CαE (SEQ ID NO:3) covalently attached to sepharose beads (RGADYSLRAVRMKIRPLVTQ; also: attached to sepharose beads)	strong binding	next most potent	52	43	0	64	0	61	8	with the exception of OV-1063, keratinocytes and cells derived from a leucocytic lineage	5	cell binding to SB-ligand, in words [4]: strong binding; cell binding to SB-ligand, in words [6]: strong binding; cell binding to SB-ligand, in words [8]: strong binding; cell binding to SB-ligand, in words [9]: Weak attachment
SB-Cβ: peptide-Cβ (SEQ ID NO:1) covalently attached to sepharose beads (KGSWYSMRKMSMKIRPFFPQQ; also: attached to sepharose beads)		most potent	100	94	4	99	0	89	100	with the exception of OV-1063, keratinocytes and cells derived from a leucocytic lineage	5	
γ chain: isolated γ chain of fibrinogen (protein, UniProt P02679 27-453, looked up, Fibrinogen gamma chain, isolated γ chain of fibrinogen) Fibrinogen gamma chain: YVATRDNCCILDERFGSYCPTTCGIADFLSTYQTKVDKDLQSLEDILHQVENKTSEVKQLIKAIQLTYNPDESSKPNMIDAATLKSRKMLEEIMKYEASILTHDSSIRYLQEIYNSNNQKIVNLKEKVAQLEAQCQEPCKDTVQIHDITGKDCQDIANKGAKQSGLYFIKPLKANQQFLVYCEIDGSGNGWTVFQKRLDGSVDFKKNWIQYKEGFGHLSPTGTTEFWLGNEKIHLISTQSAIPYALRVELEDWNGRTSTADYAMFKVGPEADKYRLTYAYFAGGDAGDAFDGFDFGDDPSDKFFTSHNGMQFSTWDNDNDKFEGNCAEQDGSGWWMNKCHAGHLNGVYYQGGTYSKASTPNGYDNGIIWATWKTRWYSMKKTTMKIIPFNRLTIGEGQQHHLGGAKQVRPEHPAETEYDSLYPEDDL												stimulation of fibroblast proliferation above controls (human fibroblasts): no effect
